{"source": "patent US20210380545A1", "about": "“(S)-ENANTIOMERIC FORM OF A HETEROCYCLIC COMPOUND HAVING MOTIVATION IMPROVING AND/OR REFERENCE MEMORY ENHANCING ACTIVITY” (Red Bull GmbH, priority 2018, published 2021)", "key": {"[1]": {"molecular_target": "T1, human dopamine transporter (DAT) (Homo sapiens, UniProt Q01959)", "T1 construct": "expressed in transfected cells", "T1 sequence (Q01959 whole entry)": "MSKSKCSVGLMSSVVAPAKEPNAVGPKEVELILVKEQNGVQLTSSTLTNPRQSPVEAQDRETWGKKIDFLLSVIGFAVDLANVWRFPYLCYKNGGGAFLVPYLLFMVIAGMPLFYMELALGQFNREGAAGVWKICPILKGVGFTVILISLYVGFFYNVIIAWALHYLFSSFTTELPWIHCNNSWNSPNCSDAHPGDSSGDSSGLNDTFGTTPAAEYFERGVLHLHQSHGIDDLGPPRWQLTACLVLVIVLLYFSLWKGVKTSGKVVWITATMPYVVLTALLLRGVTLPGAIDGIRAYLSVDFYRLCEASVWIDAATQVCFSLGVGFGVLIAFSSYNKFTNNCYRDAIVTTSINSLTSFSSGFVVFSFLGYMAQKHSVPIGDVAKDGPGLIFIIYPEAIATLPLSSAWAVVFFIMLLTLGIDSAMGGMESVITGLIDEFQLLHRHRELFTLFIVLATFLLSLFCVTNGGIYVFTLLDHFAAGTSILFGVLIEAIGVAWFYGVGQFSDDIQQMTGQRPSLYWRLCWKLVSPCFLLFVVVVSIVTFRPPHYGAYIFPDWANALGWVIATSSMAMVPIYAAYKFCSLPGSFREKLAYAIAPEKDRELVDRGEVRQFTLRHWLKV", "assay": "Reuptake inhibition assay, [3H]-dopamine uptake in HEK-DAT cells", "type": "cell-based"}, "[2]": {"molecular_target": "T2, human serotonin transporter (SERT) (Homo sapiens, UniProt P31645)", "T2 construct": "expressed in transfected cells", "T2 sequence (P31645 whole entry)": "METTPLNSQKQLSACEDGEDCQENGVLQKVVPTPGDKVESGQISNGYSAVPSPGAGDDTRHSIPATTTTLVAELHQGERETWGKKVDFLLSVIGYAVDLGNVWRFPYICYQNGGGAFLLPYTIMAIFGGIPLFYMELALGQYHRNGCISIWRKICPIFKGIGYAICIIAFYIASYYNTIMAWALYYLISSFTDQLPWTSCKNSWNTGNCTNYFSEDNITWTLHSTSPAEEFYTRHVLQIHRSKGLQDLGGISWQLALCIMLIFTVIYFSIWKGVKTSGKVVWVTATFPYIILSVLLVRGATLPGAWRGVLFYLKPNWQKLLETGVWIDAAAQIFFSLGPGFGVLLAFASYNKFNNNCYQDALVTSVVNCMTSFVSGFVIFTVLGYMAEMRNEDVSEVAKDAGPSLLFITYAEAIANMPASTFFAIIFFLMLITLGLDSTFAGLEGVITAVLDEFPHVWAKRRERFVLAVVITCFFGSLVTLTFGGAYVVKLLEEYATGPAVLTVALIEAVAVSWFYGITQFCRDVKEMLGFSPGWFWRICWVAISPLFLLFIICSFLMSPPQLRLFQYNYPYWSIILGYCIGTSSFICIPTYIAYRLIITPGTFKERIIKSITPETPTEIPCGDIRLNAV", "assay": "Reuptake inhibition assay, [3H]5-HT uptake in HEK-SERT cells", "type": "cell-based", "details": "HEK293 cells expressing human SERT, 0.4 μM [3H]5-HT, 1 min"}, "[3]": {"test_system": "Male Sprague-Dawley rats", "assay": "Holeboard test (reference memory index, RMI)", "type": "in vivo, rat", "experimental": "Male Sprague-Dawley rats (17 to 18 weeks and 22 to 23 months old), bred and maintained in the Core Unit of Biomedical Research, Division of Laboratory Animal Science and Genetics, Medical University of Vienna were used. The animals were transferred to a separate experimental room one week before the start of the experimental procedure and kept there throughout the experiment individually in standard Makrolon cages filled with autoclaved woodchips temperature: 22±2° C.; humidity: 55±5%; 12 h artificial light/12 h dark cycle: light on at 7:00 am). The study was carried out according to the guidelines of the Ethics committee, Medical University of Vienna, and were approved by the Federal Ministry of Education, Science and Culture, Austria.\nThe holeboard (1 m×1 m) was made of black plastic and was surrounded by translucent plexiglass walls. The walls were equipped with spatial cues. Distal cues were provided by room structures outside the board. Four out of sixteen regularly arranged holes (diameter and depth 7 cm) were baited (dustless precision pellets, 45 mg, Bioserv®). The pattern of baited holes remained the same during the entire test. To avoid olfactory orientation pellets were also present in an area below the board. Prior to the experiment for three days the rats were handled for 15 min to get familiarized to the experimenter, followed by two days of habituation to the hole-board during which the animals could explore the maze for 15 min each day with access to food pellets. The weight of each rat was reduced by food restriction to reach 85% of its initial body weight before the start of the experiment. Tap water was given ad libitum. Rats were trained for three days (five trials on day one, four trials on day 2 and a retention trial at day 3). Every trial lasted for 120 s or until all four pellets were found. The apparatus was cleaned with 0.1% Incidin® (Ecolab, Dusseldorf, Germany) between trials to remove odor cues. The interval between two successive trials for an individual was 20 min. A camera mounted on the room ceiling recorded the performance of the rats in the maze. […] To compare rats with similar levels of motivation, rats with less than 40-hole visits in total over the ten trials were excluded from the analysis. Reference memory errors were noted as the number of visits to the unbaited holes. The Reference Memory Index (RMI) was calculated using the formula (first+revisits of baited holes)/total visits of all holes. All behavioral training/testing was performed during the light phase of the light-dark cycle."}, "[4]": {"test_system": "Adult male Sprague-Dawley rats", "details": "for chow intake vs vehicle treatment / lever pressing vs vehicle treatment: TBZ 1.0 mg/kg plus vehicle vs vehicle/vehicle", "description": "Rats were assessed using the fixed ratio 5/chow feeding choice test.\nAdult male Sprague-Dawley rats (Envigo Sprague Dawley, Indianapolis, Ind., USA; weights 275-299 g upon arrival) were pair-housed in a colony maintained at 23° C., with a 12-h light/dark cycle (lights on 07:00). Rats were food deprived to 85% of their free-feeding body weight for operant training and allowed modest growth throughout the experiment. Water was available ad libitum in the home cages.\nBehavioural sessions were conducted in operant chambers (28×23×23 cm3; Med Associates, Fairfax, Vt.) with 30 minute sessions 5 days/week. Rats were initially trained to lever press on a continuous reinforcement FR1 schedule (high-carbohydrate 45 mg pellets, Bio-Serv, Frenchtown, N.J.) and then shifted to the FR5 schedule. After 5 weeks of training on the FR5 schedule, chow was introduced. Weighed amounts of laboratory chow (Laboratory Diet, 5P00 Prolab RMH 3000, Purina Mills, St. Louis, Mo.; typically 15-20 g) were concurrently available on the floor of the chamber during the FR5/chow feeding choice task sessions. At the end of each 30 minute session, rats were immediately removed from the chambers, number of lever presses was recorded, and the amount of chow consumed was determined by weighing the remaining food (including spillage). Rats were trained on the FR5/chow feeding choice procedure for 5 weeks, after which drug testing began. On baseline and drug treatment days, rats consumed all of the operant pellets that were delivered during each session.\nThe DMSO/Tween 80/saline solution was administered as the vehicle control. TBZ was obtained from Tocris Bioscience (Ellisville, Mo.) and was dissolved in DMSO, 0.9% saline, and titrated with HCl. The DMSO/saline solution was administered as the vehicle control. The TBZ dose was 1.0 mg/kg.\nThe experiment used a within-groups design, with each rat receiving each drug treatment in a randomly varied order (one treatment per week, with none of the treatment sequences repeated across different animals).\nTotal number of lever presses and gram quantity of chow intake from the 30 minute sessions were analysed using repeated measures ANOVA. […] When there was a significant ANOVA, non-orthogonal planned comparisons were performed, using the overall error term to assess differences between each treatment and the control condition."}, "[5]": {"molecular_target": "T3, human nor-epinephrine transporter (NET) (Homo sapiens, UniProt P23975)", "T3 construct": "expressed in transfected cells", "T3 sequence (P23975 whole entry)": "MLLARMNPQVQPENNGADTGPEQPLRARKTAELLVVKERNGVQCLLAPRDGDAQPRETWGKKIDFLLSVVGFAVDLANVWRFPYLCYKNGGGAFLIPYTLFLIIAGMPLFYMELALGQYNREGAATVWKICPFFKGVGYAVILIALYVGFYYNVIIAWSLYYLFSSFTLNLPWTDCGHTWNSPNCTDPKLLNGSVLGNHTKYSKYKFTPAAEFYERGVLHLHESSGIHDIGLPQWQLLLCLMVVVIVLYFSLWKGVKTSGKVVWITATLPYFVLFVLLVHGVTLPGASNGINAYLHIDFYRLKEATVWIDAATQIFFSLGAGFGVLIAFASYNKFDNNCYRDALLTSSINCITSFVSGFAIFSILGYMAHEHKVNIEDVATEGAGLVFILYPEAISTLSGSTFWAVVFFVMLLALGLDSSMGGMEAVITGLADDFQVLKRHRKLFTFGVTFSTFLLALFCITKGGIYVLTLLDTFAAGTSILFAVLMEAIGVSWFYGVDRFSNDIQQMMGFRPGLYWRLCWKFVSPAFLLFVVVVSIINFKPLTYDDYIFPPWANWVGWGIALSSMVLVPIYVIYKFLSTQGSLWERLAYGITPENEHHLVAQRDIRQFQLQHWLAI", "assay": "Reuptake inhibition assay, [3H]MPP+ uptake in HEK-NET cells", "type": "cell-based", "details": "HEK293 cells expressing human NET, 0.05 μM [3H]MPP+, 3 min"}, "[6]": {"details": "HEK293 cells expressing human DAT, 0.2 μM [3H]-dopamine, 1 min, read-out: IC50, inhibition of DAT-mediated dopamine reuptake"}, "[7]": {"details": "p<0.001, listed as Tetrabenazine"}}, "note": "Like-named read-outs stand apart in the source and are kept apart here."}
{"smiles": "[O-][S+](Cc1cncs1)C(c1ccccc1)c1ccccc1", "note": "(racemic) [Compound C3, 5-(diphenylmethanesulfinylmethyl)-1,3-thiazole]", "values": [{"measurement": "IC50", "setting": "[1]; [6]", "value": 4.6, "unit": "µM"}]}
{"smiles": "[O-][S@@+](Cc1cncs1)C(c1ccccc1)c1ccccc1", "note": "[Compound C1, (S)-5((diphenylmethanesulfinyl)-methyl-1,3-thiazole)]", "values": [{"measurement": "inhibition of SERT", "setting": "[2]", "value": "negligible"}, {"measurement": "IC50", "setting": "[1]", "value": 2.8, "unit": "µM"}, {"measurement": "Reference Memory Index (RMI) vs controls, entire training", "setting": "[3]; old male rats (22 to 23 months), 10 mg/kg body weight, Tukey post hoc p=0.021", "value": "significantly enhanced RMI"}, {"measurement": "Reference Memory Index (RMI) vs controls, entire training", "setting": "[3]; old male rats, 1 mg, p=0.357", "value": "performed similar as compared to controls"}, {"measurement": "Reference Memory Index (RMI) vs controls, entire training", "setting": "[3]; old male rats, 5 mg, p=0.171", "value": "performed similar as compared to controls"}, {"measurement": "RMI vs vehicle, day 1", "setting": "[3]; old male rats, 10 mg, day 1, p=0.032", "value": "significantly enhanced RMI"}, {"measurement": "RMI vs vehicle, day 2", "setting": "[3]; old male rats, 10 mg, day 2, p<0.001", "value": "significant treatment effect"}, {"measurement": "RMI vs controls, retention trial at day 3", "setting": "[3]; old male rats, 10 mg, day 3, p=0.003", "value": "higher RMI"}, {"measurement": "effect on TBZ-induced increase of chow intake", "setting": "[4]; 24.0 mg/kg with TBZ 1.0 mg/kg vs TBZ/vehicle, 30 minute session, p<0.001", "value": "significantly attenuated the effects of TBZ"}, {"measurement": "effect on TBZ-induced decrease of lever pressing", "setting": "[4]; 24.0 mg/kg with TBZ 1.0 mg/kg vs TBZ/vehicle, 30 minute session, p<0.01", "value": "significantly attenuated the effects of TBZ"}, {"measurement": "reversal of the effort-related effects of tetrabenazine", "setting": "[4]; highest dose (24.0 mg/kg) co-administered with TBZ 1.0 mg/kg", "value": "partially but significantly reversed the effects of tetrabenazine"}, {"measurement": "inhibition of NET", "setting": "[5]", "value": "negligible"}]}
{"smiles": "[O-][S@+](Cc1cncs1)C(c1ccccc1)c1ccccc1", "note": "[Compound C2, (R)-5-(diphenylmethanesulfinylmethyl)-1,3-thiazole]", "values": [{"measurement": "IC50", "setting": "[1]; [6]", "value": 22.3, "unit": "µM"}]}
{"smiles": "COc1cc2c(cc1OC)C1CC(=O)C(CC(C)C)CN1CC2", "note": "(stereo not drawn) [TBZ, 9,10-dimethoxy-3-(2-methylpropyl)-1,3,4,6,7, 11b-hexahydrobenzo[a]quinolizin-2-one]", "values": [{"measurement": "chow intake vs vehicle treatment", "setting": "[4]; p<0.001", "value": "significantly increased chow intake"}, {"measurement": "lever pressing vs vehicle treatment", "setting": "[4]; p<0.001", "value": "significantly decreased lever pressing"}, {"measurement": "chow intake vs vehicle treatment", "setting": "[4]; [7]", "value": "increased chow intake"}, {"measurement": "lever pressing vs vehicle treatment", "setting": "[4]; [7]", "value": "decreased lever pressing"}]}
